Test results reported in publication PMC4890880 (ACS infectious diseases, 2016).
pIC50: −log10 of the molar value. Like-named read-outs stand apart in the source and are kept apart here.

Legend:
[1] = test system: HepG2-A16-CD81EGFP cells; details: for pIC50: read-out: Tox_IC50, HepG2 cytotoxicity
[2] = test system: Plasmodium berghei (Pb-Luc) exoerythrocytic-stage parasites; details: for normalized signal at 0.000508053 (first series): concentration 0.000508053, first replicate series; for normalized signal at 0.000508053 (first series) / normalized signal at 0.000508053 (second series) / normalized signal at 0.00152416 (first series) / normalized signal at 0.00152416 (second series) / normalized signal at 0.00457247 (first series) / normalized signal at 0.00457247 (second series) / normalized signal at 0.0137174 (first series) / normalized signal at 0.0137174 (second series) / normalized signal at 0.0411523 (first series) / normalized signal at 0.0411523 (second series) / normalized signal at 0.123457 (first series) / normalized signal at 0.123457 (second series) / normalized signal at 0.37037 (first series) / normalized signal at 0.37037 (second series) / normalized signal at 1.11111 (first series) / normalized signal at 1.11111 (second series) / normalized signal at 3.33333 (first series) / normalized signal at 3.33333 (second series) / normalized signal at 10 (first series) / normalized signal at 10 (second series) / normalized signal at concentration 0.000508053 / normalized signal at concentration 0.00152416 / normalized signal at concentration 0.00457247 / normalized signal at concentration 0.0137174 / normalized signal at concentration 0.0411523 / normalized signal at concentration 0.123457 / normalized signal at concentration 0.37037 / normalized signal at concentration 1.11111 / normalized signal at concentration 3.33333 / normalized signal at concentration 10: fraction of control; for normalized signal at 0.000508053 (second series): concentration 0.000508053, second replicate series; for normalized signal at 0.00152416 (first series): concentration 0.00152416, first replicate series; for normalized signal at 0.00152416 (second series): concentration 0.00152416, second replicate series; for normalized signal at 0.00457247 (first series): concentration 0.00457247, first replicate series; for normalized signal at 0.00457247 (second series): concentration 0.00457247, second replicate series; for normalized signal at 0.0137174 (first series): concentration 0.0137174, first replicate series; for normalized signal at 0.0137174 (second series): concentration 0.0137174, second replicate series; for normalized signal at 0.0411523 (first series): concentration 0.0411523, first replicate series; for normalized signal at 0.0411523 (second series): concentration 0.0411523, second replicate series; for normalized signal at 0.123457 (first series): concentration 0.123457, first replicate series; for normalized signal at 0.123457 (second series): concentration 0.123457, second replicate series; for normalized signal at 0.37037 (first series): concentration 0.37037, first replicate series; for normalized signal at 0.37037 (second series): concentration 0.37037, second replicate series; for normalized signal at 1.11111 (first series): concentration 1.11111, first replicate series; for normalized signal at 1.11111 (second series): concentration 1.11111, second replicate series; for normalized signal at 3.33333 (first series): concentration 3.33333, first replicate series; for normalized signal at 3.33333 (second series): concentration 3.33333, second replicate series; for normalized signal at 10 (first series): concentration 10, first replicate series; for normalized signal at 10 (second series): concentration 10, second replicate series; for pIC50: read-out: PbLuc_IC50
[3] = 2nd round, maximal inhibition in dose series
[4] = 2nd round, Broad DOS compounds, unit not printed (dose series head 10 to 0.000508053)
[5] = sheet 2nd round, maximal inhibition in dose response
[6] = second series of columns (replicate)

## COc1ccc(NC(=O)N(C)C[C@H]2Oc3ccc(NC(=O)Nc4cccc5ccccc45)cc3CC(=O)N([C@@H](C)CO)C[C@@H]2C)cc1 [BRD-K15104969-001-01-5]
[1]; [3]
  Tox_max_inhibition (%): 14%
[1]; 2nd round, unit inferred
  pIC50: < 5.00
[2]; [3]
  PbLuc_max_inhibition (%): 44%
[2]
  normalized signal at 0.000508053 (first series): 0.969
  normalized signal at 0.000508053 (second series): 0.7927
  normalized signal at 0.00152416 (first series): 1.086
  normalized signal at 0.00152416 (second series): 0.9921
  normalized signal at 0.00457247 (first series): 0.8915
  normalized signal at 0.00457247 (second series): 0.8364
  normalized signal at 0.0137174 (first series): 1.267
  normalized signal at 0.0137174 (second series): 0.9174
  normalized signal at 0.0411523 (first series): 0.9934
  normalized signal at 0.0411523 (second series): 0.8265
  normalized signal at 0.123457 (first series): 1.28
  normalized signal at 0.123457 (second series): 0.8011
  normalized signal at 0.37037 (first series): 0.9047
  normalized signal at 0.37037 (second series): 0.8073
  normalized signal at 1.11111 (first series): 0.8441
  normalized signal at 1.11111 (second series): 0.8236
  normalized signal at 3.33333 (first series): 0.7436
  normalized signal at 3.33333 (second series): 1.005
  normalized signal at 10 (first series): 0.5627
  normalized signal at 10 (second series): 0.5558
[2]; [4]
  pIC50: < 5.00

## O=C(Nc1ccc2c(c1)[C@@H]1C[C@@H](CC(=O)N3CCc4ccccc4C3)O[C@@H](CO)[C@@H]1O2)c1ccc2c(c1)OCO2 [BRD-K15778794-001-01-7]
[1]; sheet 2nd round
  pIC50: < 5.00
[1]; [5]
  Tox_max_inhibition (%): 18%
[2]; first series of columns
  normalized signal at concentration 0.000508053: 1.025
  normalized signal at concentration 0.00152416: 1.17
  normalized signal at concentration 0.00457247: 0.8971
  normalized signal at concentration 0.0137174: 1.186
  normalized signal at concentration 0.0411523: 1.0917
  normalized signal at concentration 0.123457: 0.8992
  normalized signal at concentration 0.37037: 1.075
  normalized signal at concentration 1.11111: 1.105
  normalized signal at concentration 3.33333: 0.9056
  normalized signal at concentration 10: 0.4372
[2]; sheet 2nd round, Pb-Luc exoerythrocytic stage, 10-point dose response, top concentration 10
  pIC50: < 5.00
[2]; [6]
  normalized signal at concentration 0.000508053: 0.9828
  normalized signal at concentration 0.00152416: 0.8672
  normalized signal at concentration 0.00457247: 0.9127
  normalized signal at concentration 0.0137174: 0.911
  normalized signal at concentration 0.0411523: 0.8229
  normalized signal at concentration 0.123457: 0.8258
  normalized signal at concentration 0.37037: 0.9225
  normalized signal at concentration 1.11111: 1.043
  normalized signal at concentration 3.33333: 0.8183
  normalized signal at concentration 10: 0.6797
[2]; [5]
  PbLuc_max_inhibition (%): 56%

## C[C@@H]1CCCCO[C@@H](CN(C)S(=O)(=O)c2ccc(F)cc2)[C@H](C)CN([C@H](C)CO)C(=O)c2cc(N(C)C)ccc2O1 [BRD-K17570530-001-01-5]
[1]; sheet "2nd round"
  pIC50: < 5.00
  Tox_max_inhibition (%): 4.52%
[2]; concentration 0.000508053, first series
  normalised signal at concentration 0.000508053 (first series): 0.9121
[2]; concentration 0.000508053, second series
  normalised signal at concentration 0.000508053 (second series): 0.9459
[2]; concentration 0.00152416, first series
  normalised signal at concentration 0.00152416 (first series): 0.7511
[2]; concentration 0.00152416, second series
  normalised signal at concentration 0.00152416 (second series): 0.8649
[2]; concentration 0.00457247, first series
  normalised signal at concentration 0.00457247 (first series): 0.9449
[2]; concentration 0.00457247, second series
  normalised signal at concentration 0.00457247 (second series): 0.9685
[2]; concentration 0.0137174, first series
  normalised signal at concentration 0.0137174 (first series): 0.964
[2]; concentration 0.0137174, second series
  normalised signal at concentration 0.0137174 (second series): 0.9508
[2]; concentration 0.0411523, first series
  normalised signal at concentration 0.0411523 (first series): 1.052
[2]; concentration 0.0411523, second series
  normalised signal at concentration 0.0411523 (second series): 0.9313
[2]; concentration 0.123457, first series
  normalised signal at concentration 0.123457 (first series): 1.16
[2]; concentration 0.123457, second series
  normalised signal at concentration 0.123457 (second series): 0.9927
[2]; concentration 0.37037, first series
  normalised signal at concentration 0.37037 (first series): 0.8577
[2]; concentration 0.37037, second series
  normalised signal at concentration 0.37037 (second series): 0.9491
[2]; concentration 1.11111, first series
  normalised signal at concentration 1.11111 (first series): 0.9131
[2]; concentration 1.11111, second series
  normalised signal at concentration 1.11111 (second series): 0.9395
[2]; concentration 3.33333, first series
  normalised signal at concentration 3.33333 (first series): 0.7629
[2]; concentration 3.33333, second series
  normalised signal at concentration 3.33333 (second series): 0.867
[2]; concentration 10, first series of dose columns
  normalised signal at concentration 10 (first series): 0.8313
[2]; concentration 10, second series of dose columns
  normalised signal at concentration 10 (second series): 0.7644
[2]; sheet "2nd round", Broad compounds, dose response top concentration 10
  pIC50: < 5.00
[2]; sheet "2nd round"
  PbLuc_max_inhibition (%): 25%

## O=C(C[C@@H]1CC[C@@H]2[C@H](COC[C@@H](O)CN2C(=O)c2ccncc2)O1)Nc1ccc(-c2ccccc2)cc1 [BRD-K17686828-001-01-0]
[1]; [3]
  Tox_max_inhibition (%): 9%
[1]; 2nd round, unit inferred
  pIC50: < 5.00
[2]; [3]
  PbLuc_max_inhibition (%): 43%
[2]
  normalized signal at 0.000508053 (first series): 1.033
  normalized signal at 0.000508053 (second series): 0.8541
  normalized signal at 0.00152416 (first series): 0.9014
  normalized signal at 0.00152416 (second series): 0.8307
  normalized signal at 0.00457247 (first series): 0.9821
  normalized signal at 0.00457247 (second series): 0.9422
  normalized signal at 0.0137174 (first series): 1.011
  normalized signal at 0.0137174 (second series): 0.8936
  normalized signal at 0.0411523 (first series): 0.9016
  normalized signal at 0.0411523 (second series): 0.7632
  normalized signal at 0.123457 (first series): 1.067
  normalized signal at 0.123457 (second series): 0.5683
  normalized signal at 0.37037 (first series): 0.7959
  normalized signal at 0.37037 (second series): 0.6689
  normalized signal at 1.11111 (first series): 0.9118
  normalized signal at 1.11111 (second series): 0.6624
  normalized signal at 3.33333 (first series): 0.9028
  normalized signal at 3.33333 (second series): 0.8412
  normalized signal at 10 (first series): 0.8222
  normalized signal at 10 (second series): 0.7063
[2]; [4]
  pIC50: < 5.00

## C/C=C/c1ccc([C@H]2[C@@H](CO)N(CC3CCCCC3)[C@@H]2CNC(C)C)cc1 [BRD-K19633528-001-01-3]
[1]; [3]
  Tox_max_inhibition (%): 16%
[1]; 2nd round, unit inferred
  pIC50: < 5.00
[2]; [3]
  PbLuc_max_inhibition (%): 58%
[2]
  normalized signal at 0.000508053 (first series): 1
  normalized signal at 0.000508053 (second series): 0.834
  normalized signal at 0.00152416 (first series): 0.9222
  normalized signal at 0.00152416 (second series): 0.7558
  normalized signal at 0.00457247 (first series): 0.9507
  normalized signal at 0.00457247 (second series): 1.046
  normalized signal at 0.0137174 (first series): 0.9718
  normalized signal at 0.0137174 (second series): 0.826
  normalized signal at 0.0411523 (first series): 1.123
  normalized signal at 0.0411523 (second series): 1.151
  normalized signal at 0.123457 (first series): 1.141
  normalized signal at 0.123457 (second series): 0.8556
  normalized signal at 0.37037 (first series): 1.177
  normalized signal at 0.37037 (second series): 1.086
  normalized signal at 1.11111 (first series): 1.183
  normalized signal at 1.11111 (second series): 0.9808
  normalized signal at 3.33333 (first series): 1.3301
  normalized signal at 3.33333 (second series): 0.9519
  normalized signal at 10 (first series): 0.5856
  normalized signal at 10 (second series): 0.4223
[2]; [4]
  pIC50: < 5.00
